Among the data in patent US20210355107A1, “MULTI-SUBSTITUTED PYRIDONE DERIVATIVES AND MEDICAL USE THEREOF” (Beijing Yuezhikangtai Biomedicines Co., Ltd., priority 2018, published 2021) are IC50 values, retold here.

One may read the IC50 as the concentration needed to halve the response being measured.

The target in one assay is T1, kinase Axl (Homo sapiens, UniProt P30530).
T1 construct: purchased Carna 08-107
T1 sequence (P30530 473-894 limits assumed): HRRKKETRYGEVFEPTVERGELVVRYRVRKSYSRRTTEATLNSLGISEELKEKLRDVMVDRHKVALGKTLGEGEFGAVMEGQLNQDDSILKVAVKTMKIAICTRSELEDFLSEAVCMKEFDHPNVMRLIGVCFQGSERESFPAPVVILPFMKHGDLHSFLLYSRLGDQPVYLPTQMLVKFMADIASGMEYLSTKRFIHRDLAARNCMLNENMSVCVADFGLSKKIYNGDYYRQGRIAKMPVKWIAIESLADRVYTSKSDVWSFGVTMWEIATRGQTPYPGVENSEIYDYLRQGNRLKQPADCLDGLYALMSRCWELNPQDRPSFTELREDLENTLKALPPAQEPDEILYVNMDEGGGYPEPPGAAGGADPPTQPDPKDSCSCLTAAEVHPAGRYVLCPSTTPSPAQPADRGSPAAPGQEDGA
Briefly: Mobility shift assay, inhibitory activity against kinase Axl. In kind it is biochemical. The note with it: ATP at Km (81 μM), average of two independent experiments. How it is done:
(§1) In this test, mobility shift assay was used to test the inhibitory activity of compounds when ATP concentrations correspond to the Km of the kinases.
(§2) The concentration of test compound was 10-fold diluted from an initial concentration of 10 μM. The test result (IC50) was the average of two independent experiments.
(§3) For example, a compound at an initial concentration of 10 μM was adjusted to 500 μM with 100% DMSO, then serially diluted for 10 concentrations, and then subjected to 10-fold dilution with the buffer to prepare a diluted compound intermediate containing 10% DMSO, 5 μL of which was transferred to the 384-well plate.
(§4) 10 μL of the two enzyme solutions each was added to the 384-well plate and co-incubated with the compound for 10-15 min at room temperature.
(§5) 10 μL of the diluted substrate was added to the 384-well plate to initiate the reaction, which lasts for 1 h at 28° C.
(§6) 5) The conversion rate was read by Caliper Reader (Perkin Elmer) and the inhibition rate was calculated as the average of two tests.
(§7) 6) IC50 values were fitted with XL-fit software.

For another assay, the target named is T2, kinase c-MET (Homo sapiens, UniProt P08581).
T2 construct: purchased Carna 08-151
The experiment in a line: Mobility shift assay, inhibitory activity against kinase c-MET. The assay is classed as biochemical. The note with it: ATP at Km (35 μM), average of two independent experiments. On the procedure:
as §1, §2, §3, §4, §5, §6, §7

A further assay relates to EBC-1 cells. Briefly: EBC-1 cell proliferation, CellTiter-Glo Luminescent Cell Viability Assay. The assay is classed as cell-based. The note with it: Homo sapiens, 72 h incubation, read-out: IC50 (nM) against EBC-1 cells. On the procedure: Test Example 3: Inhibitory Activity of Compounds disclosed herein against EBC-1 Cells
Test method: the inhibitory activity of the compounds against EBC-1 cell proliferation was evaluated using CellTiter-Glo® Luminescent Cell Viability Assay Kit (Promega).
Test procedures: when thawing EBC-1 cells, the cell cryopreservation tube was shaken rapidly in a water bath at 37° C. to thaw the cells in 1 min. The cell suspension after thawing was mixed with RPMI1640 culture medium containing 10% FBS and centrifuged for 5 min at 1000 rpm, and the supernatant was discarded. The cell pellet was suspended in 5 mL of complete culture medium. The suspension was placed in a cell culture flask with a bottom area of 25 cm^2, and cultured in a cell incubator at 37° C./95% humidity/5% CO2. Cell passage was performed when cell confluence reached about 80%. When the cells were passaged, the original cell suspension was directly made uniform by pipetting. 1/6 of the cell suspension was kept, added with 5 mL of new complete culture medium and then made uniform by pipetting. The cell culture flask was then placed in a cell incubator for further culturing. Cell plating was performed when the cell confluence reached about 80% again. With reference to the method for cell passage, 1/6 cell suspension was kept for further culturing when the cells were plated, and the remaining 5/6 of cell suspension was placed in a 15 mL centrifuge tube. Cell viability was detected by trypan blue exclusion using an IC1000 cell counter (Countstar) to ensure that cell viability was above 90%. Cell suspension at a density of 3.33×10^4 viable cells/mL was prepared using complete culture medium, and 90 μL of the cell suspension was added into 96-well cell culture plates, so that the cell density in the cell culture plates (day 0 plate and test compound plate) was 3000 viable cells/well. A control group that contains no cell or compound but only complete culture medium and a control group that contains no compound but cells were set. The cell plates were incubated overnight in a cell incubator. […] 10 μL of the above solution was added into a corresponding cell culture plate to ensure that the initial concentration of the compound was 10 μM, the dilution factor of adjacent concentration was 3.16, and the DMSO content in the cell culture plate was 0.1%. The cell plates were then incubated in the cell incubator for 72 h. During detection, CellTiter-Glo reagent (namely CellTiter-Glo® […] cell viability test reagent, Promega, Cat. No. G7572, Lot. No. 0000310975) was melted, and the cell plate was equilibrated at room temperature for 30 min. The cell plate was added with the CellTiter-Glo reagent at 100 μL per well, and then shaken on a QB-9001 microporous quick shaker (Kylin-Bell) for 5 min to fully lyse the cells. The cell plate was left to stand at room temperature for 20 min to stabilize luminescence signals, and the luminescence value of each well was scanned by a Spectramax M3 multi-functional microplate reader (Molecular Devices) at full wavelength.
Test samples: example compounds of the present invention and cabozantinib (positive control compound).
Data analysis: cell viability was calculated for compounds at various concentrations using the following formula:
Cell viability(%)=(Lumtest compound−Lumculture solution control)/(Lumcell control−Lumculture solution control)×100%,
where Lum refers to the luminescence value of each well of the test compound plate read by the multi-functional microplate reader.
The data were analyzed using GraphPad Prism 7.0 software, fitted with nonlinear S-curve regression to give dose-response curves, and IC50 values were calculated therefrom.
In general terms: In ATP-based viability assays light output follows the ATP content of the culture.

The target in a further assay is T3, tyrosine kinase Mer (Homo sapiens, UniProt Q12866).
T3 construct: purchased Carna 08-108
T3 sequence (Q12866 528-999 limits assumed): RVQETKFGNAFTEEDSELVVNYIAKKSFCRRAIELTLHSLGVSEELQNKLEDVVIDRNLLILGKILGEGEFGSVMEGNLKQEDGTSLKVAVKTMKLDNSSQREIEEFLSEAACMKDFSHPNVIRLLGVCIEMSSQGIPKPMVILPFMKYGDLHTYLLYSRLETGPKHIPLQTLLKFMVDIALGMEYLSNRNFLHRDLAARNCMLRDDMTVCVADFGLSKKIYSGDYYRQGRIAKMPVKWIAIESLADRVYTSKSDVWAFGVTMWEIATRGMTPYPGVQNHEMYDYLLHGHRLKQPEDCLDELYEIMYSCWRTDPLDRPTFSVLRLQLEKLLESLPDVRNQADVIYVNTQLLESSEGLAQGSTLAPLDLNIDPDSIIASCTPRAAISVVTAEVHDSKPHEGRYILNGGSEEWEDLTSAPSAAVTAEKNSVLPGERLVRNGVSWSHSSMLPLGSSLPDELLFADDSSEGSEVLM
Briefly: HTRF assay, inhibitory activity against tyrosine kinase Mer. The note with it: ATP at Km (30 μM), two duplicate wells. In kind it is biochemical. How it is done: (§8) Test Example 2: Evaluation of Inhibitory Activity (IC50) of Compounds disclosed herein against Tyrosine Kinases Mer and Tyro3
(§9) In this test, HTRF method was used to test the inhibitory activity of compounds when ATP concentrations correspond to the Km of the kinases. The control substance was RXDX-106. The concentration of test compound was 3-fold diluted from an initial concentration of 10 μM, and two duplicate wells were set.
(§10) Kinase Mer (Carna, Cat. No. 08-108, Lot. No. 14CBS-0421H); Tyro3 (Carna, Cat. No. 08-109, Lot. No. 08CBS-1186H); HTRF kinase-TK kit (Cisbio, Cat. No. 62TK0PEC), the kit comprising: biotin-TK substrate lyophilized powder (Cisbio, Cat. No. 61TK0BLC, Lot. No. 07A), streptavidin-XL665 (Cisbio, Cat. No. 610SAXLG, Lot. No. 126A), TK antibody-cryptate (Cisbio, Cat. No. 610SAXLG, Lot. No. 04A), and detection buffer (including EDTA) (Cisbio, Cat. No. 62TK0PEC, Lot. No. 12A); ATP (Sigma, Cat. No. A7699-5G, CAS No. 34369-07-8, Lot. No. SLBQ6014V); DMSO (Sigma, Cat. No. D5879-1L, Lot. No. SHBH9944); HEPES (Sigma, Cat. No. V900477-500G, CAS No. 7365-45-9, Lot. No. WXBC4716V); MgCl2 (Sigma, Cat. No. 208337-1KG, Lot. No. MKBX9508V); EGTA (Sigma, Cat. No. E3889-100g, CAS 67-42-5, […], Lot. No. SLBG8546V); NP-40 (Beijing Dingguo, Cat. No. DH218, Lot. No. 36R00160); DTT (Sigma, Cat. No. D0632-25g, CAS No. 3483-12-3, Lot. No. SLBF3964V); compound plate (Labcyte, Cat. No. LP0200, Lot. No. 0006386836); assay plate (Greiner, Cat. No. 784075, Lot. No. E16123HM); control substance RXDX-106 (prepared according to the method disclosed in patent WO2013074633).
(§11) 1) Preparation of a buffer: 50 mM HEPES, 10 mM MgCl2, 1 mM EGTA, 0.01% NP-40, 2 mM DTT.
(§12) 2) Preparation of control substance and test samples: RXDX-106 and the compounds disclosed herein were each dissolved in DMSO to 10 mM and then diluted to 1 mM or an appropriate concentration with DMSO, and then serial double dilution was performed using BRAVO (Agilent). 100 nL of each was transferred from a compound plate (Labcyte-LP0200) to an assay plate (Greiner-784075) using ECHO 555 (Labcyte). The final concentration of DMSO was 1%.
(§13) 3) Mer and Tyro3 were each diluted to 0.5 nM and 1.2 nM with the detection buffer (Cisbio, Cat. No. 62TK0PEC, Lot. No. 12A). 5 μL of each was added to a 384-well plate and incubated with the compounds disclosed herein for 30 min at 22-25° C. Final concentrations of Mer and Tyro3 were 0.25 nM and 0.6 nM, respectively.
(§14) 4) Biotin-TK substrate and ATP were each diluted to a concentration twice the final concentration with 1× kinase buffer made up of HEPES, NaN3, BSA and orthovanadate. 5 μL of the mixture of substrate and ATP was added to the 384-well plate to initiate the reaction, which lasts for 1 h at 22-25° C.
(§15) 5) Streptavidin-XL665 and TK antibody-cryptate were diluted to 250 nM and 0.5 nM, respectively, with the detection buffer. […] of each of the two solutions was added to the 384-well plate to initiate the reaction, which lasts for 1 h at 22-25° C. The final concentrations of streptavidin-XL665 and TK antibody-cryptate were 125 nM and 0.25 nM, respectively.
(§16) 6) The fluorescence intensities at 665 nm and 615 nm were read with an Envision Reader (PerkinElmer) .
(§17) 7) IC50 values of the compounds were fitted with XL-fit software.

In a further assay the target is T4, tyrosine kinase Tyro3 (Homo sapiens, UniProt Q06418).
T4 construct: purchased Carna 08-109
T4 sequence (Q06418 453-890 limits assumed): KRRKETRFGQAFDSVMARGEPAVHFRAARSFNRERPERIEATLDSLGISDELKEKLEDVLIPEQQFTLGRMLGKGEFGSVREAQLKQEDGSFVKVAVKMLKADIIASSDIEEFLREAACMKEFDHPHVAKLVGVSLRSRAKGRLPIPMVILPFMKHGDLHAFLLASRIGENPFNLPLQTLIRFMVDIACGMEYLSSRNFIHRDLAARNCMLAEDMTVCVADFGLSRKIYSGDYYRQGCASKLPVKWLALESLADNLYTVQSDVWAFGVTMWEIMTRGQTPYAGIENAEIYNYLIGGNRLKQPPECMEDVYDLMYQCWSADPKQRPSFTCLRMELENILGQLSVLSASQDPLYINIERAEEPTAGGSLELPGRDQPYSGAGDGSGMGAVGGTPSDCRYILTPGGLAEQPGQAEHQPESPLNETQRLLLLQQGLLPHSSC
The experiment in a line: HTRF assay, inhibitory activity against tyrosine kinase Tyro3. In kind it is biochemical. The note with it: ATP at Km (50 μM), two duplicate wells. On the procedure:
as §8, §9, §10, §11, §12, §13, §14, §15, §16, §17
(In general: Time-resolved FRET reads energy transfer from a long-lived donor to a nearby acceptor.)

T2 sequence (P08581 956-1390 limits assumed): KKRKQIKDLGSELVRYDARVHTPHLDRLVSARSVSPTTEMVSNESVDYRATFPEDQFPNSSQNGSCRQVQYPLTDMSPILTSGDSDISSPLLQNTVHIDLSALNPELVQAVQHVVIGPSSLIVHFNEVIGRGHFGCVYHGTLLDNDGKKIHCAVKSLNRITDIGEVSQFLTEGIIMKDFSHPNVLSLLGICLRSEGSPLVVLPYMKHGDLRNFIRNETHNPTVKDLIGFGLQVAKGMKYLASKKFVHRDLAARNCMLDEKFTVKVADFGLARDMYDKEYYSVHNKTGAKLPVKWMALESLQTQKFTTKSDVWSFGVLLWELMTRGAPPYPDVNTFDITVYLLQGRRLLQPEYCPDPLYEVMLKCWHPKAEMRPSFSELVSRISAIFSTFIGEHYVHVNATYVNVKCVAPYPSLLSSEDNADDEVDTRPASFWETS

As for `CCn1cc(-c2cnc(N)c(-c3ccc(NC(=O)c4cc(C)c(C#N)n(-c5ccc(F)cc5)c4=O)cc3F)c2)cn1` [Example 18, N-(4-(2-amino-5-(1-ethyl-1H-pyrazol-4-yl)pyridin-3-yl)-3-fluorophenyl)-6-cyano-1-(4-fluorophenyl)-5-methyl-2-oxo-1,2-dihydropyridine-3-carboxamide], the 50% inhibitory concentration (IC50) on kinase Axl worked out at 12 nM; on kinase c-MET, 12 nM; with EBC-1 cells, 298 nM.
In the case of `CC(C)n1cc(C(=O)Nc2ccc(-c3cc(-c4cnn(C5CCNCC5)c4)cnc3N)c(F)c2)c(=O)n(-c2ccc(F)cc2)c1=O` [Example 20, N-(4-(2-amino-5-(1-(piperidin-4-yl)-1H-pyrazol-4-yl)pyridin-3-yl)-3-fluorophenyl)-3-(4-fluorophenyl)-1-isopropyl-2,4-dioxo-1,2,3,4-tetrahydropyrimidine-5-carboxamide], the IC50 on kinase Axl is 5.5 nM; on kinase c-MET, 14 nM; in the assay on EBC-1 cells, 106 nM.
For `COc1cc2nccc(Oc3ccc(NC(=O)c4cc(C)c(CN)n(-c5ccc(F)cc5)c4=O)cc3F)c2cc1OC` [Example 26, 6-(aminomethyl)-N-(4-((6,7-dimethoxyquinolin-4-yl)oxy)-3-fluorophenyl)-1-(4-fluorophenyl)-5-methyl-2-oxo-1,2-dihydro-1,2-dihydropyridine-3-carboxamide], in that order: 19 nM, 19 nM and 132 nM.
Consider `COc1cc2nccc(Oc3ccc(NC(=O)c4cn(C(C)C)c(=O)n(-c5ccc(F)cc5)c4=O)cc3F)c2cc1OC` [RXDX-106, reference compound], for which the IC50 against tyrosine kinase Mer came out at 6.4 nM; at tyrosine kinase Tyro3, 3.3 nM.
